According to patent EP4782453A1 (Beyang Therapeutics Co., Ltd., priority 2023, dated 2025):
Like-named read-outs stand apart in the source and are kept apart here.

Key:
[1] = system: MV-4-11 (carrying MLL-AF4); test: Inhibition of proliferation of human tumor cells (Alamar Blue, 7 days), MV-4-11; format: cell-based; details: Homo sapiens, MV4-11, 168 h, MV-4-11 cells (carrying MLL-AF4), method calls the value GI50
Source text: Experimental Example 2: Evaluation of Inhibitory Activity of Compounds Against Proliferation of Human Tumor Cells
• Human acute lymphoblastic leukemia cells MV-4-11, purchased from American Type Culture Collection, Catalog Number: CRL-9591; • Human acute myeloid leukemia cells MOLM-13, purchased from COBIOER BIOSCIENCES CO., LTD, Catalog Number: CBP60678; • Human acute myeloid leukemia cells KG-1a, purchased from American Type Culture Collection, Catalog Number: CCL-246.1; • Inverted Microscope, purchased from Olympus Tokyo; • Countess™ Automated Cell Counter, purchased from Invitrogen, Model: C10281; and • Multilabel Reader, purchased from Bio-Tek, Model: Synergy HT.
MV-4-11 cells were cultured in an IMDM medium containing 10% fetal bovine serum, KG-a cells were cultured in an IMDM medium containing 20% fetal bovine serum, or MOLM-13 cells were cultured in an RPMI-1640 medium containing 20% fetal bovine serum, each supplemented with 100 U·mL^-1 penicillin and 100 µg·mL^-1 streptomycin. These cells were cultured at 37°C with 5% CO2. The suspensions of individual cell lines were prepared in their respective media and seeded into 96-well plates at a density of 4,000 cells/well for MV-4-11 and MOLM-13 cells, or 3,000 cells/well for KG-1a cells. On the day of the experiment, a compound stock solution was diluted in a 3-fold or 4-fold gradient using DMSO. Each gradient-diluted stock solution was then further diluted 250-fold with a complete medium to prepare a series of working solutions at different concentrations. Subsequently, 100 µL of working solution (containing a 2-fold concentration series of the test compound) was added to each well, with duplicate wells set up for each concentration.
Seven days after compound addition (on Day 7), an Alamar Blue assay reagent (MCE, HY-111391 / CS-0040317) was added to measure the fluorescence intensity in each well. Wells containing the cells in the growth medium supplemented with 0.1% DMSO (Day 7) served as high-read control wells. The readouts from the wells containing the cells in the growth medium supplemented with 0.1% DMSO on the day of compound addition (Day 0) served as low-reading control well. GraphPad Prism software was used to calculate the concentration required to inhibit 50% of cell proliferation (GI50), which serves as a cell proliferation inhibition activity index.

[2] = system: MOLM-13 (carrying MLL-AF9); test: Inhibition of proliferation of human tumor cells (Alamar Blue, 7 days), MOLM-13; format: cell-based; details: Homo sapiens, MOLM-13 cells (carrying MLL-AF9), method calls the value GI50
Outline: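 Seven-day continuous compound exposure in duplicate wells, with 0.1% DMSO vehicle. Proliferation is quantified by Alamar Blue fluorescence and expressed as GI50, using Day 0 readings as the low reference.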

Menin-MLL = target: T1, Menin-MLL (Homo sapiens, UniProt O00255); test: Inhibitory activity against Menin-MLL binding (fluorescence polarization); details: 150 nM His-Menin, 15 nM FITC-MLL, 25°C for 60 min
T1 construct: His-Menin (M1-L615 end); purchased BIORTUS BP9210
T1 sequence (O00255 1-615 isoform O00255-1): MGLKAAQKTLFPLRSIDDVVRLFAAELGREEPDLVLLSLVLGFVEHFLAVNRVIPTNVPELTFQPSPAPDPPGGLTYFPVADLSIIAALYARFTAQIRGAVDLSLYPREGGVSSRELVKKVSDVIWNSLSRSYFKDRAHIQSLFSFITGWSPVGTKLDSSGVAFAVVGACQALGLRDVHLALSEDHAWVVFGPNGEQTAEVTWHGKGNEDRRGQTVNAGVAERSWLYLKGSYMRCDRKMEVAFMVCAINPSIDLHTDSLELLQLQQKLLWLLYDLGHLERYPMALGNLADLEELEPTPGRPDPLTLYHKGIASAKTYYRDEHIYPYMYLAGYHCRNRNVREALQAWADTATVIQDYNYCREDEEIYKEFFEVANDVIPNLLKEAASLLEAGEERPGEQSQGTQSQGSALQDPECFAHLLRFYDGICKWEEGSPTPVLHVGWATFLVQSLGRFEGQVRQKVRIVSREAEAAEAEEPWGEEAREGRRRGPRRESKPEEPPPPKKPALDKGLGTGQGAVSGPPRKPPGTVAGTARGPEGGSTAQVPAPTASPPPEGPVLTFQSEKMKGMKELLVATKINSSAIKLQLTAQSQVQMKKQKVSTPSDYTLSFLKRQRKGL
Outline: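 His-Menin (M1-L615, 150 nM) preincubated with compound 15 min at 25 °C in HEPES pH 7.5, 50 mM NaCl, 1 mM DTT, 0.01% BSA, then 15 nM FITC-MLL4-43 peptide added for 60 min at 25 °C. Fluorescence polarization read; IC50 from 4-parameter logistic fit, duplicates.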

[3] = Menin-MLL IC50, fluorescence polarization
[4] = fluorescence polarization, read-out: Menin-MLL IC50

For `CO[C@H]1CCN([C@H]2C[C@H](C(C(C)C)N3CC(c4cc(-c5ccc(F)cc5C(=O)N5CCOC[C@H]5C)c5cnn(C)c5c4)C3)C2)C1` (stereo partly drawn) [Example 196-1, 4-{4-fluoro-2-[(3R)-3-methylmorpholin-4-carbonyl]phenyl}-1-methyl-6-(1-{2-methyl-1-[(1r,3r)-3-[(3S)-3-methoxypyrrolidin-1-yl]cyclobutyl]propyl}azacyclobutan-3-yl)-1H-indazole], the IC50 [1] was 36 nM, the IC50 ([2]; MOLM-13, 168 h) was 120 nM and the IC50 (Menin-MLL; [3]) was 50 nM.
For `CO[C@H]1CCN([C@H]2C[C@@H](C(C(C)C)N3CC(c4cc(-c5ccc(F)cc5C(=O)N5CCOC[C@H]5C)c5cnn(C)c5c4)C3)C2)C1` (stereo partly drawn) [Example 196-2, 4-{4-fluoro-2-[(3R)-3-methylmorpholin-4-carbonyl]phenyl}-1-methyl-6-(1-{2-methyl-1-[(1s,3s)-3-[(3S)-3-methoxypyrrolidin-1-yl]cyclobutyl]propyl}azacyclobutan-3-yl)-1H-indazole], the IC50 [1] was 9.6 nM, the IC50 ([2]; MOLM-13, 168 h) was 28 nM and the IC50 (Menin-MLL; [3]) was 17 nM.
In the case of `Cc1nc(F)c2c(-c3ccc(F)cc3C(=O)N3[C@H](C)COC[C@H]3C)cc(C3CN([C@H](C)C4CCOCC4)C3)cn12` [Example 209-1, (3R,5R)-4-[5-fluoro-2-(1-fluoro-3-methyl-6-{1-[(1R)-1-(oxacyclohexan-4-yl)ethyl]azacyclobutan-3-yl}imidazo[1,5-a]pyridin-8-yl)benzoyl]-3,5-dimethylmorpholine], the IC50 [1] is reported as 12 nM, the IC50 ([2]; 168 h) is reported as 21 nM and the IC50 (Menin-MLL; [4]) is reported as 29.5 nM.
With `Cc1nc(F)c2c(-c3ccc(F)cc3C(=O)N3[C@H](C)COC[C@H]3C)cc(C3CN([C@@H](C)C4CCOCC4)C3)cn12` [Example 209-2, (3R,5R)-4-[5-fluoro-2-(1-fluoro-3-methyl-6-{1-[(1S)-1-(oxacyclohexan-4-yl)ethyl]azacyclobutan-3-yl}imidazo[1,5-a]pyridin-8-yl)benzoyl]-3,5-dimethylmorpholine] the IC50 [1] was 2 nM, the IC50 ([2]; 168 h) was 5 nM and the IC50 (Menin-MLL; [4]) was 4.5 nM.
Work on `CC(=O)N1CCC(CN2CC(Cc3cc(-c4ccc(F)cc4C(=O)N(CC(F)F)C(C)C)c4cncc(C)n34)C2)CC1` [Example 210] yielded an IC50 [1] of 7.1 nM, an IC50 ([2]; 168 h) of 41 nM and an IC50 (Menin-MLL; [4]) of 3 nM.
In the case of `Cc1nc(F)c2c(-c3ccc(F)cc3C(=O)N3[C@H](C)COC[C@H]3C)cc(C3CN(CC4CCN(CC5(O)CCOCC5)CC4)C3)cn12` [Example 211, 4-[(4-{[3-(8-{2-[(3R,5R)-3,5-dimethylmorpholin-4-carbonyl]-4-fluorophenyl}-1-fluoro-3-methylimidazo[1,5-a]pyridin-6-yl)azacyclobutan-1-yl]methyl}piperidin-1-yl)methyl]oxacyclohexan-4-ol], the IC50 [1] is reported as 2.2 nM, the IC50 ([2]; 168 h) is reported as 5.7 nM and the IC50 (Menin-MLL; [4]) is reported as 3 nM.
`Cc1ncc2c(-c3ccc(F)cc3C(=O)N3[C@H](C)COC[C@H]3C)cc(C3CN(CC4CCOCC4)C3)cn12` [Example 212, (3R,5R)-4-[5-fluoro-2-(3-methyl-6-{1-[(oxacyclohexan-4-yl)methyl]azacyclobutan-3-yl}imidazo[1,5-a]pyridin-8-yl)benzoyl]-3,5-dimethylmorpholine] gave an IC50 [1] of 16 nM, an IC50 ([2]; 168 h) of 31 nM and an IC50 (Menin-MLL; [4]) of 12.5 nM.
Work on `Cc1nc(F)c2c(-c3ccc(F)cc3C(=O)N3[C@H](C)COC[C@H]3C)cc(C3CN(C[C@H]4CC[C@H](n5cncn5)CC4)C3)cn12` [Example 213, (3R,5R)-4-{5-fluoro-2-[1-fluoro-3-methyl-6-(1-{[(1r,4r)-4-(1H-1,2,4-triazol-1-yl)cyclohexyl]methyl}azacyclobutan-3-yl)imidazo[1,5-a]pyridin-8yl]benzoyl}-3,5-dimethylmorpholine] yielded an IC50 [1] of 13 nM, an IC50 ([2]; MOLM-13, 168 h) of 29 nM and an IC50 (Menin-MLL; [3]) of 11 nM.
`Cc1nc(F)c2c(-c3ccc(F)cc3C(=O)N3[C@H](C)COC[C@H]3C)cc(C3CN(CC4CCN(C(=O)C5(O)CC5)CC4)C3)cn12` [Example 214] showed an IC50 [1] of 7.5 nM, an IC50 ([2]; 168 h) of 12 nM and an IC50 (Menin-MLL; [4]) of 5 nM.
In the case of `Cc1nc(F)c2c(-c3ccc(F)cc3C(=O)N3[C@H](C)COC[C@H]3C)cc(C3CN(CC4CCN(C(=O)C5CC5)CC4)C3)cn12` [Example 215], the IC50 [1] is reported as 6.7 nM, the IC50 ([2]; 168 h) is reported as 13 nM and the IC50 (Menin-MLL; [4]) is reported as 11 nM.
With `Cc1nc(F)c2c(-c3ccc(F)cc3C(=O)N3[C@H](C)COC[C@H]3C)cc(C3CN(CC4CCN(C(=O)C5COC5)CC4)C3)cn12` [Example 216] the IC50 [1] was 22 nM, the IC50 ([2]; 168 h) was 32 nM and the IC50 (Menin-MLL; [4]) was 23 nM.
In the case of `Cc1nc(F)c2c(-c3ccc(F)cc3C(=O)N3[C@H](C)COC[C@H]3C)cc(C3CN(CC4CCN(C(=O)CC(C)C)CC4)C3)cn12` [Example 218], the IC50 [1] is reported as 6 nM, the IC50 ([2]; 168 h) is reported as 11 nM and the IC50 (Menin-MLL; [4]) is reported as 13 nM.
For `Cc1nc(F)c2c(-c3ccc(F)cc3C(=O)N3[C@H](C)COC[C@H]3C)cc(C3CN(CC4CCN(C(=O)C(F)F)CC4)C3)cn12` [Example 219], the IC50 [1] was 12 nM, the IC50 ([2]; 168 h) was 14 nM and the IC50 (Menin-MLL; [4]) was 12 nM.
In the case of `Cc1nc(F)c2c(-c3ccc(F)cc3C(=O)N3[C@H](C)COC[C@H]3C)cc(C3CN(CC4CCN(C(=O)C5CCOCC5)CC4)C3)cn12` [Example 221], the IC50 [1] is reported as 12 nM, the IC50 ([2]; 168 h) is reported as 27 nM and the IC50 (Menin-MLL; [4]) is reported as 27 nM.
Compound `CNC(=O)N1CCC(CN2CC(c3cc(-c4ccc(F)cc4C(=O)N4[C@H](C)COC[C@H]4C)c4c(F)nc(C)n4c3)C2)CC1` [Example 222] has an IC50 [1] of 4.4 nM, an IC50 ([2]; 168 h) of 9 nM and an IC50 (Menin-MLL; [4]) of 7 nM.
With `COCCC(=O)N1CCC(CN2CC(c3cc(-c4ccc(F)cc4C(=O)N4[C@H](C)COC[C@H]4C)c4c(F)nc(C)n4c3)C2)CC1` [Example 223] the IC50 [1] was 8.1 nM, the IC50 ([2]; 168 h) was 19 nM and the IC50 (Menin-MLL; [4]) was 15 nM.
`COCC(=O)N1CCC(CN2CC(c3cc(-c4ccc(F)cc4C(=O)N4[C@H](C)COC[C@H]4C)c4c(F)nc(C)n4c3)C2)CC1` [Example 224] was tested, and the IC50 [1] was 14 nM, the IC50 ([2]; 168 h) was 36 nM and the IC50 (Menin-MLL; [4]) was 26 nM.
For `CC(=O)N1CCC(CN2CC(c3cc(-c4ccc(F)cc4C(=O)N4CCOC[C@H]4C)c4c(F)nc(C)n4c3)C2)CC1` [Example 225], the IC50 [1] was 25 nM, the IC50 ([2]; 168 h) was 60 nM and the IC50 (Menin-MLL; [4]) was 28 nM.
In the case of `Cc1nc(F)c2c(-c3ccc(F)cc3C(=O)N3[C@H](C)COC[C@H]3C)cc(C3CN(CC4CCN(C(=O)CC#N)CC4)C3)cn12` [Example 226], the IC50 [1] is reported as 2.1 nM, the IC50 ([2]; 168 h) is reported as 5.3 nM and the IC50 (Menin-MLL; [4]) is reported as 7.5 nM.
For `Cc1cncc2c(-c3ccc(F)cc3C(=O)N3[C@H](C)COC[C@H]3C)cc(CC3CN(CC4CCOCC4)C3)n12` [Example 230], the IC50 [1] was 1 nM, the IC50 ([2]; MOLM-13, 168 h) was 2.9 nM and the IC50 (Menin-MLL; [4]) was 2 nM.
Work on `CCC(=O)N1CCC(CN2CC(c3cc(-c4ccc(F)cc4C(=O)N4[C@H](C)COC[C@H]4C)c4c(F)nc(C)n4c3)C2)CC1` [Example 231] yielded an IC50 [1] of 6.1 nM, an IC50 ([2]; 168 h) of 16 nM and an IC50 (Menin-MLL; [4]) of 22.5 nM.
